Key:
NCI-ADR cancer cell line = assay: Cytotoxicity in cell culture (FIG. 3), NCI-ADR; type: cell-based; settings: NCI-ADR cells, in vitro
H460 cancer cell line = assay: Cytotoxicity in cell culture (FIG. 3), H460; type: cell-based; settings: H460 cells, in vitro
MCF-7 cancer cell line = assay: Cytotoxicity in cell culture (FIG. 3), MCF-7; type: cell-based; settings: MCF-7 cells, in vitro
SF cancer cell line = assay: Cytotoxicity in cell culture (FIG. 3), SF; type: cell-based; settings: SF cells, in vitro
MX-1 tumor xenograft = MX-1 tumor xenograft in nude mice, tumor size (FIG. 1); type: in vivo; settings: infusion twice daily for five days; compared with control (pharmaceutical carrier only)
[1] = Body weight of treated nude mice with MX-1 xenograft (FIG. 2); type: in vivo; settings: infusion twice daily for five days; during the course of treatment

C/C(=C\c1csc(C)n1)[C@H]1OC(=O)C[C@H](O)C(C)(C)C(=O)[C@H](C)[C@@H](O)[C@@H](C)CCC[C@@]2(C)O[C@H]2[C@H]1C [(14S)-14-methylepothilone B]
cytotoxicity (NCI-ADR cancer cell line): essentially inactive | cytotoxicity (H460 cancer cell line): essentially inactive | cytotoxicity (MCF-7 cancer cell line): essentially inactive | cytotoxicity (SF cancer cell line): essentially inactive

C/C1=C/[C@@H](C)[C@@H](/C(C)=C/c2csc(C)n2)OC(=O)C[C@H](O)C(C)(C)C(=O)[C@H](C)[C@@H](O)[C@@H](C)CCC1 [(14R)-14-methylepothilone D]
cytotoxicity (NCI-ADR cancer cell line): essentially inactive | cytotoxicity (H460 cancer cell line): essentially inactive | cytotoxicity (MCF-7 cancer cell line): essentially inactive | cytotoxicity (SF cancer cell line): essentially inactive

C/C(=C\c1csc(C)n1)[C@H]1OC(=O)C[C@H](O)C(C)(C)C(=O)[C@H](C)[C@@H](O)[C@@H](C)CCC[C@@]2(C)O[C@H]2[C@@H]1C [(14R)-14-methylepothilone B]
cytotoxicity (NCI-ADR cancer cell line): cytotoxic | cytotoxicity (H460 cancer cell line): cytotoxic | cytotoxicity (MCF-7 cancer cell line): cytotoxic | cytotoxicity (SF cancer cell line): cytotoxic

C/C1=C/[C@H](C)[C@@H](/C(C)=C/c2csc(C)n2)OC(=O)C[C@H](O)C(C)(C)C(=O)[C@H](C)[C@@H](O)[C@@H](C)CCC1 [(14S)-14-methylepothilone D]
cytotoxicity (NCI-ADR cancer cell line): cytotoxic | rate of tumor growth as measured by the tumor size (MX-1 tumor xenograft): decrease in the rate of tumor growth | cytotoxicity (H460 cancer cell line): cytotoxic | cytotoxicity (MCF-7 cancer cell line): cytotoxic | cytotoxicity (SF cancer cell line): cytotoxic | body weight [1]: slight decrease in body weight

From patent publication US20030134883A1, “14-Methyl-epothilones” (priority 2001, published 2003)
